Biological target: T1, recombinant DDB1-CRBN (Homo sapiens, UniProt Q96SW2)
T1 construct: His; made in house; host or cells: High Five insect cells (baculovirus made and propagated in SF9 cells)
Test: Fluorescence polarization-based competition assay for CRBN binding
Conditions: 200 nM CRBN-DDB1, 20 nM pomalidomide-fluorescein tracer 16, triplicates; read-out: FP_CRBN_binding: CRBN binding affinity, EC50
Procedure: Prior to screening the compound library in the isogenic CPA, we assessed their CRBN binding affinities using a fluorescence-polarization-based competition assay with recombinant DDB1-CRBN and the fluorescent tracer 16 (Figure S2). […] We also assessed the cytotoxicity of the CRBN binders in RKO wild-type (WT) cells to determine the appropriate treatment concentration. […]
Fluorescence Polarization‐based competition assay
Fluorescence Polarization assays were performed in 384‐well, Low Volume, Black, Round Bottom, Polystyrene Nonbinding surface Microplates (Corning, #4514). The test compounds were incubated with 200 nM CRBN‐DDB1 and 20 nM Pomalidomide‐fluorescein tracer 16 in 50 mM Tris‐HCl pH 7.5, 200 mM NaCl, 1 mM DTT, 0.02% Triton X‐ 100, and 0.1 µg/µL Bovine Serum Albumin (Sigma Aldrich, #A7030) in a total volume of 25 µL. Fluorescence polarization values were determined with a PerkinElmer Envision reader with FITC FP dual mirror and FITC FP 480 excitation filter and FITC FP 535 emission filters. Fluorescence polarization values of a 10x serial dilution (10 nM to 100 µM) of the test compounds were determined in triplicates. EC50 values were calculated with GraphPad Prism software (version 10.0.2) with a non‐linear fit function (4PL sigmoidal curve fit) adjusting the bottom constrain to the FP value of free tracer. […]

Row | Compound | EC50
1 | CN(C1CC1)S(=O)(=O)Oc1cccc(Nc2ccc3c(c2)C(=O)N(C2CCC(=O)NC2=O)C3=O)c1 (centres unmarked) [FL1-21] | 1050 nM
2 | O=C1CCC(N2C(=O)c3ccc(Nc4ccc(OS(=O)(=O)N5CCC(c6ccncc6)CC5)cc4)cc3C2=O)C(=O)N1 (centres unmarked) [FL2-16] | 1970 nM
3 | CN(C1CC1)S(=O)(=O)Oc1ccc(Nc2ccc3c(c2)C(=O)N(C2CCC(=O)NC2=O)C3=O)cc1 (centres unmarked) [FL2-21] | 1140 nM
4 | CN(Cc1ncnn1C)S(=O)(=O)Oc1ccc(Nc2ccc3c(c2)C(=O)N(C2CCC(=O)NC2=O)C3=O)cc1 (centres unmarked) [FL2-11] | 617 nM
5 | CC(C)(O)C1CCN(S(=O)(=O)Oc2cccc(C3CCC(=O)NC3=O)c2)C1 (centres unmarked) [FL6-4] | 1300 nM
6 | CN(Cc1ccc2[nH]nnc2c1)S(=O)(=O)Oc1ccc(Nc2cccc3c2C(=O)N(C2CCC(=O)NC2=O)C3=O)cc1 (centres unmarked) [FL4-15] | 2130 nM
7 | CC1(C)CN(S(=O)(=O)Oc2cccc(Nc3ccc4c(c3)C(=O)N(C3CCC(=O)NC3=O)C4=O)c2)CC2(CCOC2)O1 (centres unmarked) [FL1-8] | 930 nM
8 | C[C@@H]1C[C@H](C)CN(S(=O)(=O)Oc2cccc(Nc3cccc4c3C(=O)N(C3CCC(=O)NC3=O)C4=O)c2)C1 (some centres unmarked) [FL3-6] | 2770 nM
9 | CC(C)(O)C1CCN(S(=O)(=O)Oc2cccc(Nc3ccc4c(c3)C(=O)N(C3CCC(=O)NC3=O)C4=O)c2)C1 (centres unmarked) [FL1-4] | 481 nM
10 | CC1(C)CN(S(=O)(=O)Oc2cccc(Nc3cccc4c3C(=O)N(C3CCC(=O)NC3=O)C4=O)c2)CC2(CCOC2)O1 (centres unmarked) [FL3-8] | 911 nM
11 | CC1c2cc(F)ccc2CCN1S(=O)(=O)Oc1cccc(Nc2cccc3c2C(=O)N(C2CCC(=O)NC2=O)C3=O)c1 (centres unmarked) [FL3-17] | 1310 nM
12 | CC1(C)CN(S(=O)(=O)Oc2ccc(Nc3cccc4c3C(=O)N(C3CCC(=O)NC3=O)C4=O)cc2)CCS1(=O)=O (centres unmarked) [FL4-7] | 741 nM
13 | O=C1CCC(N2C(=O)c3cccc(Nc4cccc(OS(=O)(=O)N5C[C@@H](F)[C@H](F)C5)c4)c3C2=O)C(=O)N1 (some centres unmarked) [FL3-10] | 582 nM
14 | O=C1CCC(N2C(=O)c3ccc(Nc4cccc(OS(=O)(=O)N5C[C@@H](F)[C@H](F)C5)c4)cc3C2=O)C(=O)N1 (some centres unmarked) [FL1-10] | 607 nM
15 | CC(C)(O)C1CCN(S(=O)(=O)Oc2ccc(Nc3ccc4c(c3)C(=O)N(C3CCC(=O)NC3=O)C4=O)cc2)C1 (centres unmarked) [FL2-4] | 770 nM
16 | CN(C)c1ncc(CN(C)S(=O)(=O)Oc2ccc(C3CCC(=O)NC3=O)cc2)cn1 (centres unmarked) [FL5-18] | 586 nM
17 | CN(Cc1ccc2c(c1)OCO2)S(=O)(=O)Oc1ccc(C2CCC(=O)NC2=O)cc1 (centres unmarked) [FL5-20] | 775 nM
18 | CC1(C)CN(S(=O)(=O)Oc2cccc(Nc3ccc4c(c3)C(=O)N(C3CCC(=O)NC3=O)C4=O)c2)CCS1(=O)=O (centres unmarked) [FL1-7] | 522 nM
19 | CC(O)CN(C)S(=O)(=O)Oc1ccc(Nc2cccc3c2C(=O)N(C2CCC(=O)NC2=O)C3=O)cc1 (centres unmarked) [FL4-1] | 370 nM
20 | O=C1CCC(N2C(=O)c3ccc(Nc4cccc(OS(=O)(=O)N5CC6(CNC(=O)N6)C5)c4)cc3C2=O)C(=O)N1 (centres unmarked) [FL1-9] | 435 nM
21 | CC1(C)CN(S(=O)(=O)Oc2ccc(Nc3ccc4c(c3)C(=O)N(C3CCC(=O)NC3=O)C4=O)cc2)CCS1(=O)=O (centres unmarked) [FL2-7] | 731 nM
22 | CC1c2cc(F)ccc2CCN1S(=O)(=O)Oc1cccc(C2CCC(=O)NC2=O)c1 (centres unmarked) [FL6-17] | 803 nM
23 | CN(Cc1ncc(C2CC2)o1)S(=O)(=O)Oc1ccc(C2CCC(=O)NC2=O)cc1 (centres unmarked) [FL5-14] | 600 nM
24 | CN(Cc1ncnn1C)S(=O)(=O)Oc1cccc(C2CCC(=O)NC2=O)c1 (centres unmarked) [FL6-11] | 887 nM
25 | CN(Cc1ccc2c(c1)OCO2)S(=O)(=O)Oc1cccc(Nc2ccc3c(c2)C(=O)N(C2CCC(=O)NC2=O)C3=O)c1 (centres unmarked) [FL1-20] | 1470 nM
26 | O=C1CCC(c2ccc(OS(=O)(=O)N3CCC(c4ccco4)C3)cc2)C(=O)N1 (centres unmarked) [FL5-12] | 705 nM
27 | CN(C)c1ncc(CN(C)S(=O)(=O)Oc2ccc(Nc3ccc4c(c3)C(=O)N(C3CCC(=O)NC3=O)C4=O)cc2)cn1 (centres unmarked) [FL2-18] | 872 nM
28 | CN(C1CC1)S(=O)(=O)Oc1cccc(Nc2cccc3c2C(=O)N(C2CCC(=O)NC2=O)C3=O)c1 (centres unmarked) [FL3-21] | 1020 nM
29 | CN(Cc1ncc(C2CC2)o1)S(=O)(=O)Oc1ccc(Nc2cccc3c2C(=O)N(C2CCC(=O)NC2=O)C3=O)cc1 (centres unmarked) [FL4-14] | 996 nM

The next lines start with the values.

Row | EC50 | Compound
30 | 893 nM | O=C1CCC(c2ccc(OS(=O)(=O)N3C[C@@H](F)[C@H](F)C3)cc2)C(=O)N1 (some centres unmarked) [FL5-10]
31 | 3650 nM | C[C@@H]1C[C@H](C)CN(S(=O)(=O)Oc2ccc(Nc3cccc4c3C(=O)N(C3CCC(=O)NC3=O)C4=O)cc2)C1 (some centres unmarked) [FL4-6]
32 | 1050 nM | CC1c2cccn2CCN1S(=O)(=O)Oc1ccc(Nc2ccc3c(c2)C(=O)N(C2CCC(=O)NC2=O)C3=O)cc1 (centres unmarked) [FL2-19]
33 | 1290 nM | CC1c2cc(F)ccc2CCN1S(=O)(=O)Oc1ccc(Nc2ccc3c(c2)C(=O)N(C2CCC(=O)NC2=O)C3=O)cc1 (centres unmarked) [FL2-17]
34 | 4220 nM | O=C1CCC(c2ccc(OS(=O)(=O)N3CCC(c4ccncc4)CC3)cc2)C(=O)N1 (centres unmarked) [FL5-16]
35 | 961 nM | C[C@@H]1C[C@H](C)CN(S(=O)(=O)Oc2cccc(C3CCC(=O)NC3=O)c2)C1 (some centres unmarked) [FL6-6]
36 | 330 nM | O=C1CCC(N2C(=O)c3cccc(Nc4cccc(OS(=O)(=O)N5CC6(CNC(=O)N6)C5)c4)c3C2=O)C(=O)N1 (centres unmarked) [FL3-9]
37 | 1170 nM | CN(Cc1ccc2[nH]nnc2c1)S(=O)(=O)Oc1cccc(Nc2ccc3c(c2)C(=O)N(C2CCC(=O)NC2=O)C3=O)c1 (centres unmarked) [FL1-15]
38 | 1250 nM | O=C1CCC(c2cccc(OS(=O)(=O)N3CC(CCO)C3)c2)C(=O)N1 (centres unmarked) [FL6-2]
39 | 509 nM | CN(Cc1ncnn1C)S(=O)(=O)Oc1cccc(Nc2ccc3c(c2)C(=O)N(C2CCC(=O)NC2=O)C3=O)c1 (centres unmarked) [FL1-11]
40 | 864 nM | CC1(C)CN(S(=O)(=O)Oc2ccc(C3CCC(=O)NC3=O)cc2)CCS1(=O)=O (centres unmarked) [FL5-7]
41 | 4560 nM | O=C1CCC(N2C(=O)c3cccc(Nc4ccc(OS(=O)(=O)N5CCC(c6ccco6)C5)cc4)c3C2=O)C(=O)N1 (centres unmarked) [FL4-12]
42 | 914 nM | C[C@@H](O)CN(C)S(=O)(=O)Oc1ccc(C2CCC(=O)NC2=O)cc1 (some centres unmarked) [FL5-1]
43 | 463 nM | Cc1cn2c(n1)CN(S(=O)(=O)Oc1ccc(Nc3cccc4c3C(=O)N(C3CCC(=O)NC3=O)C4=O)cc1)CC2 (centres unmarked) [FL4-13]
44 | 449 nM | CN(Cc1ncnn1C)S(=O)(=O)Oc1cccc(Nc2cccc3c2C(=O)N(C2CCC(=O)NC2=O)C3=O)c1 (centres unmarked) [FL3-11]
45 | 482 nM | Cc1cn2c(n1)CN(S(=O)(=O)Oc1cccc(Nc3ccc4c(c3)C(=O)N(C3CCC(=O)NC3=O)C4=O)c1)CC2 (centres unmarked) [FL1-13]
46 | 570 nM | O=C1CCC(c2cccc(OS(=O)(=O)N3CCC(c4ccco4)C3)c2)C(=O)N1 (centres unmarked) [FL6-12]
47 | 682 nM | O=C1CCC(N2C(=O)c3ccc(Nc4cccc(OS(=O)(=O)N5CCC(c6ccncc6)CC5)c4)cc3C2=O)C(=O)N1 (centres unmarked) [FL1-16]
48 | 1080 nM | CN(C1CC1)S(=O)(=O)Oc1ccc(Nc2cccc3c2C(=O)N(C2CCC(=O)NC2=O)C3=O)cc1 (centres unmarked) [FL4-21]
49 | 652 nM | O=C1CCC(N2C(=O)c3cccc(Nc4ccc(OS(=O)(=O)N5CCOCC5)cc4)c3C2=O)C(=O)N1 (centres unmarked) [FL4-5]
50 | 713 nM | O=C1CCC(c2cccc(OS(=O)(=O)N3CC4(CNC(=O)N4)C3)c2)C(=O)N1 (centres unmarked) [FL6-9]
51 | 622 nM | CN(Cc1ccc2c(c1)OCO2)S(=O)(=O)Oc1cccc(C2CCC(=O)NC2=O)c1 (centres unmarked) [FL6-20]
52 | 408 nM | O=C1CCC(N2C(=O)c3cccc(Nc4cccc(OS(=O)(=O)N5CC(CCO)C5)c4)c3C2=O)C(=O)N1 (centres unmarked) [FL3-2]
53 | 771 nM | Cc1cn2c(n1)CN(S(=O)(=O)Oc1ccc(C3CCC(=O)NC3=O)cc1)CC2 (centres unmarked) [FL5-13]

From article PMC10764104, “Discovery of Molecular Glue Degraders via Isogenic Morphological Profiling” (ACS Chemical Biology, 2023)
